Experimental data as given in ChEMBL document CHEMBL1149673, “A novel approach to cyclin-dependent kinase 5/p25 inhibitors: A potential treatment for Alzheimer's disease” (Bioorg Med Chem, 2007).
pIC50: −log10 of the molar value.

Columns and labels:
[1] = Toxicity in Vero-C1008 cells at 6.25 to 50 ug/ml; assay type: cell-based; conditions: African green monkey
Homo sapiens = species: Homo sapiens; experiment: Selectivity for Cdk5/p25 over Cdk2/cyclin E
[2] = target: Cyclin-dependent kinase 5/CDK5 activator 1 (Homo sapiens, UniProt Q00535); experiment: Inhibitory activity against Cdk5/p25; assay type: protein-complex assay
Sequence of Cyclin-dependent kinase 5/CDK5 activator 1 (Q00535 whole entry): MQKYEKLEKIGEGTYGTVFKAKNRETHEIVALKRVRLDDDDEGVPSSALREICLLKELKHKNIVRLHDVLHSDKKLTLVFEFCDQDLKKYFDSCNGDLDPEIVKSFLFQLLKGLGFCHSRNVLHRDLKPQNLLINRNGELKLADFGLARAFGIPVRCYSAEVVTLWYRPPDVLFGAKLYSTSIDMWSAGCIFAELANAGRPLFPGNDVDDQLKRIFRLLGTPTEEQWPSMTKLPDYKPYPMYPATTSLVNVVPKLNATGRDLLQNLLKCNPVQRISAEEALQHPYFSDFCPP
Sequence of Cyclin-dependent kinase 5/CDK5 activator 1 (Q15078 whole entry, further chain): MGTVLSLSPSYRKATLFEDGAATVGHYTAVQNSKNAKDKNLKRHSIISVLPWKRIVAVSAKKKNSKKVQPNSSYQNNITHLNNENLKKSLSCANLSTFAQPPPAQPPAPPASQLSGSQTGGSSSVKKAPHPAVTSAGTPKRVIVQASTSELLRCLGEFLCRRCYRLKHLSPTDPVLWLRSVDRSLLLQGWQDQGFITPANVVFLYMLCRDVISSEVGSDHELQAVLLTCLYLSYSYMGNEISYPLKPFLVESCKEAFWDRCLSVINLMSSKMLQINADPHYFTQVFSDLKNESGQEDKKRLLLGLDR

[3] = Inhibitory activity against Cdk2/cyclin E; parameters: species or system Homo sapiens

Compound	Ratio IC50 (Homo sapiens)	pIC50 [2]	pIC50 [3]	Activity [1]
CC(=O)Nc1cc(C)c(-c2nnc3n2NC(c2ccccc2)=C(c2ccccc2)S3)s1	2	7.36	7.05	Not Active
O=C(CCl)Nc1cc(-c2ccccc2)c(-c2nnc3sc(-c4cccc([N+](=O)[O-])c4)nn23)s1	1	7.32	7.28	Not Active
CC(=O)Nc1cc(-c2ccccc2)c(-c2nnc3sc(-c4cccc([N+](=O)[O-])c4)nn23)s1	1	7.22	7.19	Not Active
CC(=O)Nc1cc(C)c(-c2nnc(S)n2N)s1	1	7.24	7.28	Not Active
CC(=O)Nc1cc(C)c(-c2nnc3n2N=C(C)CS3)s1		6.19		Not Active
Nn1c(S)nnc1-c1sc(NC(=O)CCl)cc1-c1ccccc1	3	7.38	6.92	Not Active
Cc1cc(NC(=O)CCl)sc1-c1nnc2n1NC(=O)CS2		6.09		Not Active
CC(=O)Nc1cc(C)c(-c2nnc3n2Nc2nc4ccccc4nc2S3)s1	2	7.47	7.15	Not Active
Cc1cc(NC(=O)CCl)sc1-c1nnc2sc(=S)[nH]n12		5.13		Not Active
CC(=O)Nc1cc(-c2ccccc2)c(-c2nnc3sc(=S)[nH]n23)s1		5.69		Not Active
CC(=O)Nc1cc(-c2ccccc2)c(-c2nnc3n2NC(c2ccccc2)=C(c2ccccc2)S3)s1	2	7.40	7.09	Not Active
CC(=O)Nc1cc(-c2ccccc2)c(-c2nnc3n2NC(=O)CS3)s1		6.38		Not Active
CC(=O)Nc1cc(-c2ccccc2)c(-c2nnc3n2Nc2nc4ccccc4nc2S3)s1	1.2	7.27	7.19	Not Active
CC(=O)Nc1cc(C)c(-c2nnc3sc(-c4ccccc4)nn23)s1	1.2	7.38	7.29	Not Active
CC(=O)Nc1cc(C)c(-c2nnc3n2NC(=O)CS3)s1		6.20		Not Active
O=C(CCl)Nc1cc(-c2ccccc2)c(-c2nnc3n2NC(c2ccccc2)=C(c2ccccc2)S3)s1	2	7.21	6.90	Not Active
CC(=O)Nc1cc(-c2ccccc2)c(-c2nnc(S)n2N)s1	1	7.27	7.25	Not Active
O=C(CCl)Nc1cc(-c2ccccc2)c(-c2nnc3sc(-c4ccccc4)nn23)s1	3.2	7.55	7.04	Not Active
Cc1cc(NC(=O)CCl)sc1-c1nnc(S)n1N		7.34	7.31	Not Active
CC(=O)Nc1cc(C)c(-c2nnc3sc(-c4cccc([N+](=O)[O-])c4)nn23)s1	1	7.19	7.11	Not Active
CC(=O)Nc1cc(C)c(-c2nnc3sc(=S)[nH]n23)s1		5.49		Not Active
CC(=O)Nc1cc(-c2ccccc2)c(-c2nnc3sc(-c4ccccc4)nn23)s1	1.2	7.42	7.36	Not Active

Second part, led by results:

Ratio IC50 (Homo sapiens)	pIC50 [2]	pIC50 [3]	Compound	Activity [1]
	5.51		Cc1cc(NC(=O)CCl)sc1-c1nnc2n1N=C(c1cc(F)c(Cl)cc1Cl)/C(=C/c1cccc([N+](=O)[O-])c1)S2	Not Active
	6.35		CC(=O)Nc1cc(-c2ccccc2)c(-c2nnc3n2N=C(C)CS3)s1	Not Active
1	7.28	7.19	Cc1cc(NC(=O)CCl)sc1-c1nnc2sc(-c3cccc([N+](=O)[O-])c3)nn12	Not Active
3.2	7.52	7.02	Cc1cc(NC(=O)CCl)sc1-c1nnc2sc(-c3ccccc3)nn12	Not Active
	5.48		Cc1cc(NC(=O)CCl)sc1-c1nnc2n1N=C(c1cc(F)c(Cl)cc1Cl)/C(=C/c1ccccc1Cl)S2	Not Active
	5.61		O=C(CCl)Nc1cc(-c2ccccc2)c(-c2nnc3n2N=C(c2cc(F)c(Cl)cc2Cl)/C(=C/c2ccccc2Cl)S3)s1	Not Active
	5.48		CC(=O)Nc1cc(C)c(-c2nnc3n2N=C(c2cc(F)c(Cl)cc2Cl)/C(=C/c2ccccc2Cl)S3)s1	Not Active
	5.53		Cc1cc(NC(=O)CCl)sc1-c1nnc2n1N=C(c1cc(F)c(Cl)cc1Cl)/C(=C/c1ccc(Cl)cc1)S2	Not Active
	5.61		CC(=O)Nc1cc(-c2ccccc2)c(-c2nnc3n2N=C(c2cc(F)c(Cl)cc2Cl)/C(=C/c2ccc(Cl)cc2)S3)s1	Not Active
	5.57		O=C(CCl)Nc1cc(-c2ccccc2)c(-c2nnc3n2N=C(c2cc(F)c(Cl)cc2Cl)/C(=C/c2cccc([N+](=O)[O-])c2)S3)s1	Not Active
	5.47		Cc1cc(NC(=O)CCl)sc1-c1nnc2n1N=C(c1cc(F)c(Cl)cc1Cl)/C(=C/c1ccccc1)S2	Not Active
	6.43		CC1=Nn2c(nnc2-c2sc(NC(=O)CCl)cc2-c2ccccc2)SC1	Not Active
	5.47		CC(=O)Nc1cc(C)c(-c2nnc3n2N=C(c2cc(F)c(Cl)cc2Cl)/C(=C/c2ccc(Cl)cc2)S3)s1	Not Active
	5.61		O=C(CCl)Nc1cc(-c2ccccc2)c(-c2nnc3n2N=C(c2cc(F)c(Cl)cc2Cl)/C(=C/c2ccc(Cl)cc2)S3)s1	Not Active
2	7.14	6.81	Cc1cc(NC(=O)CCl)sc1-c1nnc2n1NC(c1ccccc1)=C(c1ccccc1)S2	Not Active
	5.84		CC(=O)Nc1cc(-c2ccccc2)c(-c2nnc3n2N=C(c2cc(F)c(Cl)cc2Cl)/C(=C/c2ccccc2)S3)s1	Not Active
	6.34		CC1=Nn2c(nnc2-c2sc(NC(=O)CCl)cc2C)SC1	Not Active
	5.63		CC(=O)Nc1cc(C)c(-c2nnc3n2N=C(c2cc(F)c(Cl)cc2Cl)/C(=C/c2ccccc2)S3)s1	Not Active
	5.23		O=C(CCl)Nc1cc(-c2ccccc2)c(-c2nnc3sc(S)nn23)s1	Not Active
	5.52		CC(=O)Nc1cc(C)c(-c2nnc3n2N=C(c2cc(F)c(Cl)cc2Cl)/C(=C/c2cccc([N+](=O)[O-])c2)S3)s1	Not Active
	6.20		O=C(CCl)Nc1cc(-c2ccccc2)c(-c2nnc3n2NC(=O)CS3)s1	Not Active
	5.61		CC(=O)Nc1cc(-c2ccccc2)c(-c2nnc3n2N=C(c2cc(F)c(Cl)cc2Cl)/C(=C/c2cccc([N+](=O)[O-])c2)S3)s1	Not Active
2.2	7.19	6.85	Cc1cc(NC(=O)CCl)sc1-c1nnc2n1Nc1nc3ccccc3nc1S2	Not Active
	5.61		CC(=O)Nc1cc(-c2ccccc2)c(-c2nnc3n2N=C(c2cc(F)c(Cl)cc2Cl)/C(=C/c2ccccc2Cl)S3)s1	Not Active
3.2	7.52	6.99	O=C(CCl)Nc1cc(-c2ccccc2)c(-c2nnc3n2Nc2nc4ccccc4nc2S3)s1	Not Active
	5.60		O=C(CCl)Nc1cc(-c2ccccc2)c(-c2nnc3n2N=C(c2cc(F)c(Cl)cc2Cl)/C(=C/c2ccccc2)S3)s1	Not Active
